The test system of data set [1] is Escherichia coli. The data set can be described thus: Antimicrobial activity against delta-sbmA deletion mutant containing Escherichia coli BW25113 incubated for 18 hrs at 37 degC by broth microdilution method. The format is functional. Particulars: BW25113, 18 h; call rule not given here.
In data set [2] the test system is Escherichia coli. The data set can be described thus: Antimicrobial activity against Escherichia coli ATCC 25922 incubated for 18 hrs at 37 degC by broth microdilution method. The format is functional. Particulars: ATCC 25922, 18 h.
Data set [3] concerns Escherichia coli. The data set can be described thus: Antimicrobial activity against O-antigen lacking LPS containing wild type Escherichia coli BW25113 incubated for 18 hrs at 37 degC by broth microdilution method. Particulars: BW25113, 18 h. The format is functional.
The test system of data set [4] is Escherichia coli. The data set can be described thus: Antimicrobial activity against delta-waaG deletion mutant containing Escherichia coli BW25113 incubated for 18 hrs at 37 degC by broth microdilution method. The format is functional. The note with it: BW25113, 18 h.
Data set [5] has as its system Escherichia coli. Put plainly: Drug uptake in Escherichia coli ATCC 25922 assessed as mean fluorescence intensity using BODIPY-labeled compound at 0.25 to 4 uM incubated for 60 mins by flow cytometry. The format is ADME, organism-based. Particulars: in vivo, 1 h.
Data set [6] deals with Escherichia coli. The data set can be described thus: Drug uptake in Escherichia coli ATCC 25922 assessed as mean fluorescence intensity using BODIPY-labeled compound at 0.25 to 4 uM incubated for 60 mins in presence of trypan blue quencher by flow cytometry. The format is ADME, organism-based. Particulars: in vivo, 1 h.
Data set [7] concerns Escherichia coli. Put plainly: Drug uptake in Escherichia coli ATCC 25922 assessed as mean fluorescence intensity using BODIPY-labeled compound at 0.25 to 4 uM incubated for 10 mins in presence of trypan blue quencher by flow cytometry. Particulars: in vivo. The format is ADME, organism-based.
The subject of data set [8] is Escherichia coli. The data set can be described thus: Drug uptake in Escherichia coli ATCC 25922 assessed as mean fluorescence intensity using BODIPY-labeled compound at 0.25 to 4 uM incubated for 10 mins by flow cytometry. The format is ADME, organism-based. Particulars: in vivo.
Data set [9] concerns Escherichia coli. Put plainly: Antimicrobial activity against Escherichia coli HB101 incubated for 18 hrs at 37 degC by broth microdilution method. The format is functional. The note with it: HB101, 18 h.
Data set [10] relates to Escherichia coli. Put plainly: Drug uptake in O-antigen lacking LPS containing wild type Escherichia coli BW25113 at 1 uM up to 3.5 hrs in presence of trypan blue quencher. The format is ADME, organism-based. Particulars: in vivo.

This note sets out measurements from ChEMBL document CHEMBL3407397, “Effect of size and N-terminal residue characteristics on bacterial cell penetration and antibacterial activity of the proline-rich peptide Bac7” (J Med Chem, 2015).

Values after ≈ are worked out from the molar mass of the structure shown. Non-standard residues stand in square brackets, D forms with d. Residues, ends and D or L forms follow the SMILES beside them. *: point of attachment. Arg(NO2) = N=C(NCCC[C@H](N)C(=O)O)N[N+](=O)[O-]; Arg(Me2a) = CN(C)C(=N)NCCC[C@H](N)C(=O)O; X1 = F[B-]1(F)n2c(ccc2*)C=C2C=CC=[N+]21

Regarding `CC[C@H](C)[C@H](NC(=O)[C@@H](CCCNC(=N)N)NC(=O)[C@H](N)CCCNC(=N)N)C(=O)N[C@@H](CCCNC(=N)N)C(=O)N1CCC[C@H]1C(=O)N[C@@H](CCCNC(=N)N)C(=O)N1CCC[C@H]1C(=O)N1CCC[C@H]1C(=O)N[C@@H](CCCNC(=N)N)C(=O)N[C@@H](CC(C)C)C(=O)N1CCC[C@H]1C(=O)N[C@@H](CCCNC(=N)N)C(=O)N1CCC[C@H]1C(=O)N[C@@H](CCCNC(=N)N)C(=O)N1CCC[C@H]1C(=O)N[C@@H](CCCNC(=N)N)C(=O)N1CCC[C@H]1C(=O)N[C@@H](CC(C)C)C(=O)N1CCC[C@H]1C(=O)N[C@@H](Cc1ccc(O)cc1)C(=O)N1CCC[C@H]1C(=O)N[C@@H](CCCNC(=N)N)C(=O)N1CCC[C@H]1C(=O)O`, the minimal inhibitory concentration (MIC) in data set [1] stood at 16 µM (≈ 46.4 µg/mL); in [2] it was 4 µM (≈ 11.6 µg/mL); in data set [3] it was 4 µM (≈ 11.6 µg/mL); in [4] it was 2 µM (≈ 5.8 µg/mL).

On to `CC[C@H](C)[C@H](NC(=O)[C@H](CCCNC(=N)N)NC(=O)[C@@H](N)CCCNC(=N)N)C(=O)N[C@@H](CCCNC(=N)N)C(=O)N1CCC[C@H]1C(=O)N[C@@H](CCCNC(=N)N)C(=O)N1CCC[C@H]1C(=O)N1CCC[C@H]1C(=O)N[C@@H](CCCNC(=N)N)C(=O)N[C@@H](CC(C)C)C(=O)N1CCC[C@H]1C(=O)N[C@@H](CCCNC(=N)N)C(=O)N1CCC[C@H]1C(=O)N[C@@H](CCCNC(=N)N)C(=O)N1CCC[C@H]1C(=O)N[C@@H](CSc1ccc2n1[B-](F)(F)[N+]1=CC=CC1=C2)C(=O)O` (H-RRIRPRPPRLPRPRPC(X1)-OH), for which the Drug uptake entry in data set [5], in data set [6], in data set [7] and in [8] was “Not Active” throughout. For the same molecule, the minimum inhibitory concentration (MIC) in [2] and in data set [9] was 1 µM (≈ 2.21 µg/mL) in each case.

In the case of `CC[C@H](C)[C@H](NC(=O)[C@H](CCCNC(=N)N)NC(=O)[C@@H](N)CCCNC(=N)N)C(=O)N[C@@H](CCCNC(=N)N)C(=O)N1CCC[C@H]1C(=O)N[C@@H](CCCNC(=N)N)C(=O)N1CCC[C@H]1C(=O)N1CCC[C@H]1C(=O)N[C@@H](CCCNC(=N)N)C(=O)N[C@@H](CC(C)C)C(=O)N1CCC[C@H]1C(=O)N[C@@H](CCCNC(=N)N)C(=O)N1CCC[C@H]1C(=O)N[C@@H](CCCNC(=N)N)C(=O)N1CCC[C@H]1C(=O)N[C@@H](CCCNC(=N)N)C(=O)N[C@@H](CSc1ccc2n1[B-](F)(F)[N+]1=CC=CC1=C2)C(=O)O` (H-RRIRPRPPRLPRPRPRC(X1)-OH), the minimal inhibitory concentration (MIC) in [2] and in [9] was 0.5 µM (≈ 1.18 µg/mL) in each case.

Turning to `CC[C@H](C)[C@H](NC(=O)[C@H](CCCNC(=N)N)NC(=O)[C@@H](N)CCCNC(=N)N)C(=O)N[C@@H](CCCNC(=N)N)C(=O)N1CCC[C@H]1C(=O)N[C@@H](CCCNC(=N)N)C(=O)N1CCC[C@H]1C(=O)N1CCC[C@H]1C(=O)N[C@@H](CCCNC(=N)N)C(=O)N[C@@H](CC(C)C)C(=O)N1CCC[C@H]1C(=O)N[C@@H](CCCNC(=N)N)C(=O)N1CCC[C@H]1C(=O)N[C@@H](CCCNC(=N)N)C(=O)N1CCC[C@H]1C(=O)N[C@@H](CCCNC(=N)N)C(=O)N1CCC[C@H]1C(=O)N[C@@H](CC(C)C)C(=O)N1CCC[C@H]1C(=O)N[C@@H](Cc1ccccc1)C(=O)N1CCC[C@H]1C(=O)N[C@@H](CCCNC(=N)N)C(=O)N1CCC[C@H]1C(=O)N[C@@H](CSc1ccc2n1[B-](F)(F)[N+]1=CC=CC1=C2)C(=O)O` (H-RRIRPRPPRLPRPRPRPLPFPRPC(X1)-OH), the Drug uptake result is on record as “Active” in [5]; “Active” in data set [6]; “Active” in data set [7]; “Not Active” in data set [10]; “Active” in data set [8].

Turning to `CC[C@H](C)[C@H](NC(=O)[C@H](CCCNC(=N)N(C)C)NC(=O)[C@@H](N)CCCNC(=N)N)C(=O)N[C@@H](CCCNC(=N)N)C(=O)N1CCC[C@H]1C(=O)N[C@@H](CCCNC(=N)N)C(=O)N1CCC[C@H]1C(=O)N1CCC[C@H]1C(=O)N[C@@H](CCCNC(=N)N)C(=O)N[C@@H](CC(C)C)C(=O)N1CCC[C@H]1C(=O)N[C@@H](CCCNC(=N)N)C(=O)N1CCC[C@H]1C(=O)N[C@@H](CCCNC(=N)N)C(=O)N1CCC[C@H]1C(=O)N[C@@H](CCCNC(=N)N)C(=O)N1CCC[C@H]1C(=O)N[C@@H](CC(C)C)C(=O)N1CCC[C@H]1C(=O)N[C@@H](Cc1ccc(O)cc1)C(=O)N1CCC[C@H]1C(=O)N[C@@H](CCCNC(=N)N)C(=O)N1CCC[C@H]1C(=O)O` (H-R[Arg(Me2a)]IRPRPPRLPRPRPRPLPYPRP-OH), the MIC in data set [1] came out at 8 µM (≈ 23.4 µg/mL); in data set [2] it was 4 µM (≈ 11.7 µg/mL); in data set [3], 4 µM (≈ 11.7 µg/mL); in [4], 1 µM (≈ 2.93 µg/mL).

For `CC[C@H](C)[C@H](NC(=O)[C@H](CCCNC(=N)N)NC(=O)[C@@H](N)CCCNC(=N)N(C)C)C(=O)N[C@@H](CCCNC(=N)N)C(=O)N1CCC[C@H]1C(=O)N[C@@H](CCCNC(=N)N)C(=O)N1CCC[C@H]1C(=O)N1CCC[C@H]1C(=O)N[C@@H](CCCNC(=N)N)C(=O)N[C@@H](CC(C)C)C(=O)N1CCC[C@H]1C(=O)N[C@@H](CCCNC(=N)N)C(=O)N1CCC[C@H]1C(=O)N[C@@H](CCCNC(=N)N)C(=O)N1CCC[C@H]1C(=O)N[C@@H](CCCNC(=N)N)C(=O)N1CCC[C@H]1C(=O)N[C@@H](CC(C)C)C(=O)N1CCC[C@H]1C(=O)N[C@@H](Cc1ccc(O)cc1)C(=O)N1CCC[C@H]1C(=O)N[C@@H](CCCNC(=N)N)C(=O)N1CCC[C@H]1C(=O)O` (H-[Arg(Me2a)]RIRPRPPRLPRPRPRPLPYPRP-OH), the minimum inhibitory concentration (MIC) in data set [1] was found to be 8 µM (≈ 23.4 µg/mL); in data set [2], 2 µM (≈ 5.85 µg/mL); in [3] it was 2 µM (≈ 5.85 µg/mL); in data set [4], 0.5 µM (≈ 1.46 µg/mL).

On to `CC[C@H](C)[C@H](NC(=O)[C@H](CCCNC(=N)N(C)C)NC(=O)[C@@H](N)CCCNC(=N)N(C)C)C(=O)N[C@@H](CCCNC(=N)N)C(=O)N1CCC[C@H]1C(=O)N[C@@H](CCCNC(=N)N)C(=O)N1CCC[C@H]1C(=O)N1CCC[C@H]1C(=O)N[C@@H](CCCNC(=N)N)C(=O)N[C@@H](CC(C)C)C(=O)N1CCC[C@H]1C(=O)N[C@@H](CCCNC(=N)N)C(=O)N1CCC[C@H]1C(=O)N[C@@H](CCCNC(=N)N)C(=O)N1CCC[C@H]1C(=O)N[C@@H](CCCNC(=N)N)C(=O)N1CCC[C@H]1C(=O)N[C@@H](CC(C)C)C(=O)N1CCC[C@H]1C(=O)N[C@@H](Cc1ccc(O)cc1)C(=O)N1CCC[C@H]1C(=O)N[C@@H](CCCNC(=N)N)C(=O)N1CCC[C@H]1C(=O)O` (H-[Arg(Me2a)][Arg(Me2a)]IRPRPPRLPRPRPRPLPYPRP-OH), for which the MIC in data set [1] amounted to 16 µM (≈ 47.3 µg/mL); in [2], 8 µM (≈ 23.6 µg/mL); in data set [3] it was 8 µM (≈ 23.6 µg/mL); in data set [4] it was 2 µM (≈ 5.91 µg/mL).

For `CC[C@H](C)[C@H](NC(=O)[C@H](CCCNC(=N)N)NC(=O)[C@@H](N)CCCN/C(N)=N\[N+](=O)[O-])C(=O)N[C@@H](CCCNC(=N)N)C(=O)N1CCC[C@H]1C(=O)N[C@@H](CCCNC(=N)N)C(=O)N1CCC[C@H]1C(=O)N1CCC[C@H]1C(=O)N[C@@H](CCCNC(=N)N)C(=O)N[C@@H](CC(C)C)C(=O)N1CCC[C@H]1C(=O)N[C@@H](CCCNC(=N)N)C(=O)N1CCC[C@H]1C(=O)N[C@@H](CCCNC(=N)N)C(=O)N1CCC[C@H]1C(=O)N[C@@H](CCCNC(=N)N)C(=O)N1CCC[C@H]1C(=O)N[C@@H](CC(C)C)C(=O)N1CCC[C@H]1C(=O)N[C@@H](Cc1ccc(O)cc1)C(=O)N1CCC[C@H]1C(=O)N[C@@H](CCCNC(=N)N)C(=O)N1CCC[C@H]1C(=O)O` (H-[Arg(NO2)]RIRPRPPRLPRPRPRPLPYPRP-OH), the MIC in [1] stood at 8 µM (≈ 23.5 µg/mL); in [2], 4 µM (≈ 11.8 µg/mL); in [3], 4 µM (≈ 11.8 µg/mL); in data set [4] it was 1 µM (≈ 2.94 µg/mL).
